According to PubChem BioAssay (NCI):
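Values below derive from 48-hour exposures of cells grown in 96-well plates, with endpoints linearly interpolated between the two concentrations bracketing the appropriate inhibition level. GI50 marks 50% less growth. TGI is the concentration that stops growth completely.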

Columns and labels:
Assay in all cases: NCI tumour cell line growth inhibition, 48 h
DMS 273 small cell lung = test system: DMS 273 small cell lung
KM20L2 colon = test system: KM20L2 colon
XF 498 CNS = test system: XF 498 CNS
DMS 114 small cell lung = test system: DMS 114 small cell lung
M19-MEL melanoma = test system: M19-MEL melanoma
SNB-78 CNS = test system: SNB-78 CNS
HOP-18 NSCLC = test system: HOP-18 NSCLC
RXF-631 renal = test system: RXF-631 renal
MDA-N = test system: MDA-N

SMILES: O=C1C2c3[nH]c4ccccc4c3C3CCCCCC3C2C(=O)N1c1ccccc1 (stereo not given)
- TGI (DMS 273 small cell lung): > 100 µM
- TGI (KM20L2 colon): > 100 µM
- TGI (XF 498 CNS): 47.4 µM
- TGI (DMS 114 small cell lung): > 100 µM
- TGI (M19-MEL melanoma): > 100 µM
- TGI (SNB-78 CNS): 70.7 µM
- TGI (HOP-18 NSCLC): > 60.4 µM

SMILES: O=C(N/C(=C\c1ccccc1Cl)c1nc2ccccc2[nH]1)c1ccccc1
- TGI (KM20L2 colon): > 100 µM
- TGI (XF 498 CNS): 57.5 µM
- TGI (DMS 114 small cell lung): > 100 µM
- TGI (M19-MEL melanoma): > 100 µM
- TGI (RXF-631 renal): > 100 µM
- TGI (SNB-78 CNS): > 100 µM

SMILES: O=C(/C=C/C(Cl)(Cl)Cl)Nc1ccc(Cl)cc1
- TGI (MDA-N): 13.8 µM

SMILES: CN(NC1OC(CO)C(O)C(O)C1O)c1ccccc1 (stereo not given)
- TGI (DMS 273 small cell lung): > 100 µM
- TGI (KM20L2 colon): > 100 µM
- TGI (XF 498 CNS): 30.6 µM
- TGI (M19-MEL melanoma): > 100 µM
- TGI (SNB-78 CNS): > 100 µM
- TGI (HOP-18 NSCLC): > 100 µM

SMILES: COc1ccc(S(=O)(=O)N[C@H](C(=O)O)c2ccccc2)cc1
- TGI (DMS 273 small cell lung): > 100 µM
- TGI (KM20L2 colon): > 100 µM
- TGI (XF 498 CNS): > 100 µM
- TGI (DMS 114 small cell lung): > 100 µM
- TGI (M19-MEL melanoma): > 100 µM
- TGI (SNB-78 CNS): > 100 µM
- TGI (HOP-18 NSCLC): > 100 µM

SMILES: COC1OC(CBr)C(OC(=O)c2ccccc2)C(OS(=O)(=O)c2ccc(C)cc2)C1Br (stereo not given)
- TGI (DMS 273 small cell lung): > 100 µM
- TGI (KM20L2 colon): > 100 µM
- TGI (M19-MEL melanoma): > 100 µM
- TGI (SNB-78 CNS): > 100 µM

SMILES: Cc1cc(=O)n(-c2c(C)cccc2Cl)c(/C=C(\O)c2ccncc2)n1
- TGI (DMS 273 small cell lung): > 100 µM
- TGI (KM20L2 colon): > 100 µM
- TGI (DMS 114 small cell lung): > 100 µM
- TGI (RXF-631 renal): > 100 µM
- TGI (SNB-78 CNS): > 100 µM
- TGI (HOP-18 NSCLC): > 100 µM

SMILES: COc1cc2c(cc1O)CN1CCC23C=C[C@@H](O)CC13 (stereo not given in full)
- TGI (DMS 273 small cell lung): > 100 µM
- TGI (KM20L2 colon): > 100 µM
- TGI (DMS 114 small cell lung): > 100 µM
- TGI (M19-MEL melanoma): > 100 µM
- TGI (SNB-78 CNS): > 100 µM
- TGI (HOP-18 NSCLC): > 100 µM

SMILES: O=CNc1ccc(S(=O)(=O)c2ccc(NC=O)cc2)cc1
- TGI (MDA-N): > 100 µM

SMILES: COc1cccc2nc3ccccc3nc12
- TGI (MDA-N): > 100 µM

SMILES: O=C(COc1ccc(OCC(=O)N2C(=O)CN(c3ccccc3)C2=S)cc1)N1C(=O)CN(c2ccccc2)C1=S
- GI50 (MDA-N): > 25 µM
- TGI (MDA-N): > 100 µM

SMILES: Cc1cc(C)c2c(c1)N[S@@](=O)S2
- TGI (DMS 273 small cell lung): 38.2 µM
- TGI (KM20L2 colon): > 100 µM
- TGI (XF 498 CNS): 50.1 µM
- TGI (DMS 114 small cell lung): 38.7 µM
- TGI (M19-MEL melanoma): 46.7 µM
- TGI (SNB-78 CNS): > 100 µM
- TGI (HOP-18 NSCLC): 92.1 µM

SMILES: O=c1ccc(=O)n(-c2ccccc2)[nH]1
- TGI (MDA-N): > 100 µM

SMILES: O=C(O)c1c(Cl)c(Cl)c(Cl)c(Cl)c1C(=O)Nc1ccc2cn[nH]c2c1
- TGI (MDA-N): > 100 µM

SMILES: CCOC(=O)C(NO)C(Sc1ccccc1)c1ccc(OC)cc1 (stereo not given)
- TGI (DMS 273 small cell lung): > 100 µM
- TGI (KM20L2 colon): > 100 µM
- TGI (XF 498 CNS): > 100 µM
- TGI (DMS 114 small cell lung): > 100 µM
- TGI (M19-MEL melanoma): > 100 µM
- TGI (SNB-78 CNS): > 100 µM
- TGI (HOP-18 NSCLC): > 100 µM

SMILES: COc1cc(C2C(C(=O)Nc3ccc([N+](=O)[O-])cc3)=C(C)NC(C)=C2C(=O)Nc2ccc([N+](=O)[O-])cc2)ccc1O
- TGI (DMS 273 small cell lung): 53.3 µM
- TGI (KM20L2 colon): 34.7 µM
- TGI (XF 498 CNS): 69.1 µM
- TGI (DMS 114 small cell lung): > 74.5 µM
- TGI (M19-MEL melanoma): 43.3 µM
- TGI (RXF-631 renal): > 100 µM
- TGI (SNB-78 CNS): > 100 µM
- TGI (HOP-18 NSCLC): > 74.2 µM

SMILES: C[C@H](CS)C(=O)N1c2ccccc2C[C@H]1C(=O)O
- TGI (MDA-N): > 100 µM

SMILES: CCN(CC)CC(=O)NC1c2ccccc2Oc2c(C)cccc21 (stereo not given)
- TGI (DMS 273 small cell lung): > 100 µM
- TGI (KM20L2 colon): > 100 µM
- TGI (XF 498 CNS): > 100 µM
- TGI (DMS 114 small cell lung): > 100 µM
- TGI (M19-MEL melanoma): > 100 µM
- TGI (SNB-78 CNS): > 100 µM

SMILES: CN(C)C(=O)NC(=S)N(C)C
- TGI (DMS 273 small cell lung): > 100 µM
- TGI (KM20L2 colon): > 100 µM
- TGI (XF 498 CNS): > 100 µM
- TGI (DMS 114 small cell lung): > 100 µM
- TGI (M19-MEL melanoma): > 100 µM
- TGI (SNB-78 CNS): > 100 µM
- TGI (HOP-18 NSCLC): > 100 µM
